# Laboratory results taken from patent US12077503B2, “Substituted cyclic amides and their use as herbicides” (FMC CORPORATION, priority 2015, dated 2024).
# Experiments:
# Type in all cases: in vivo
# [1] = system: sedge, umbrella (small-flower umbrella sedge, Cyperus difformis); test: Test B flooded paddy test; conditions: Cyperus difformis, 360 h, Flood, 250 g ai/ha; visually evaluated after 13 to 15 d; read-out: Plant response rating, Sedge, Umbrella (0 to 100 scale where 0 is no effect and 100 is complete control)
# Summary of the method: (§1)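 Visual ratings (0 none to 100 complete control) are relative to untreated plants, taken 13–15 d after treatment in a greenhouse. Test material went straight into floodwater standing 3 cm above the soil, kept constant, on plants at the 2-leaf stage.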
# [2] = system: ducksalad (Heteranthera limosa); test: Test B flooded paddy test; conditions: Heteranthera limosa, 360 h, Flood, 250 g ai/ha; visually evaluated after 13 to 15 d; read-out: Plant response rating, Ducksalad (0 to 100 scale where 0 is no effect and 100 is complete control)
# Summary of the method: as §1
# [3] = system: barnyardgrass (Echinochloa crus-galli); test: Test B flooded paddy test; conditions: Echinochloa crus-galli, 360 h, Flood, 250 g ai/ha; visually evaluated after 13 to 15 d; read-out: Plant response rating, Barnyardgrass (0 to 100 scale where 0 is no effect and 100 is complete control)
# Summary of the method: as §1
# rice (Oryra sativa) = test: Test B flooded paddy test; conditions: Oryza sativa, 360 h, Flood, 250 g ai/ha; visually evaluated after 13 to 15 d; read-out: Plant response rating, Rice (0 to 100 scale where 0 is no effect and 100 is complete control)
# Summary of the method: as §1
# [4] = system: giant foxtail (Setaria faberii); test: Test A preemergence; conditions: Setaria faberi, pre-emergence, 240 h, Preemergence
# Summary of the method: (§2)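 Visual injury, scored on a 0–100 scale relative to untreated controls, was recorded about 10 d after application. Treatments were a preemergence soil spray over planted seeds or a postemergence spray on plants at the one- to two-leaf stage, 2 to 10 cm tall, all in loam soil–sand blend in the greenhouse.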
# [5] = system: ryegrass, Italian (Italian ryegrass, Lolium multiflorum); test: Test A preemergence; conditions: Lolium multiflorum, pre-emergence, 240 h, Preemergence
# Summary of the method: as §2
# [6] = system: ragweed (common ragweed, Ambrosia elatior); test: Test A preemergence; conditions: Ambrosia artemisiifolia, pre-emergence, 240 h, Preemergence
# Summary of the method: as §2
# [7] = system: pigweed (Amaranthus retroflexus); test: Test A preemergence; conditions: Amaranthus retroflexus, pre-emergence, 240 h, Preemergence
# Kochia (Kochia scoparia) [8] = test: Test A preemergence; conditions: Bassia scoparia, pre-emergence, 240 h, Preemergence
# Summary of the method: as §2
# [9] = system: barnyardgrass (Echinochloa crus-galli); test: Test A preemergence; conditions: Echinochloa crus-galli, pre-emergence, 240 h, Preemergence
# Summary of the method: as §2
# corn (Zea mays) = test: Test A postemergence; conditions: Zea mays, post-emergence, 240 h, Postemergence
# Summary of the method: as §2
# [10] = system: giant foxtail (Setaria faberii); test: Test A postemergence; conditions: Setaria faberi, post-emergence, 240 h, Postemergence
# Summary of the method: as §2
# [11] = system: ryegrass, Italian (Italian ryegrass, Lolium multiflorum); test: Test A postemergence; conditions: Lolium multiflorum, post-emergence, 240 h, Postemergence
# Summary of the method: as §2
# [12] = system: blackgrass (Alopecurus myosuroides); test: Test A postemergence; conditions: Alopecurus myosuroides, post-emergence, 240 h, Postemergence
# Summary of the method: as §2
# [13] = system: ragweed (common ragweed, Ambrosia elatior); test: Test A postemergence; conditions: Ambrosia artemisiifolia, post-emergence, 240 h, Postemergence
# Summary of the method: as §2
# [14] = system: pigweed (Amaranthus retroflexus); test: Test A postemergence; conditions: Amaranthus retroflexus, post-emergence, 240 h, Postemergence
# Summary of the method: as §2
# Kochia (Kochia scoparia) [15] = test: Test A postemergence; conditions: Bassia scoparia, post-emergence, 240 h, Postemergence
# Summary of the method: as §2
# [16] = system: Galium (catchweed bedstraw, Galium aparine); test: Test A postemergence; conditions: Galium, post-emergence, 240 h, Postemergence
# Summary of the method: as §2
# [17] = system: barnyardgrass (Echinochloa crus-galli); test: Test A postemergence; conditions: Echinochloa crus-galli, post-emergence, 240 h, Postemergence
# Summary of the method: as §2
# [18] = system: wheat (Triticum aestivum); test: Test A postemergence; conditions: Triticum aestivum, post-emergence, 240 h, Postemergence
# Summary of the method: as §2
smiles,measurement,setting,value
CN1C[C@H](c2ccc(Cl)cc2)[C@@H](C(=O)Nc2cccc(F)n2)C1=O [Compound 1399],pest or weed control at 250 g/ha,[1],0%
same,pest or weed control at 250 g/ha,[2],100%
same,pest or weed control at 250 g/ha,[3],85%
same,pest or weed control at 250 g/ha,rice (Oryra sativa),15%
same,pest or weed control at 31 g/ha,"[4]; 31 g ai/ha, 0 to 100 scale where 0 is no effect and 100 is complete control, read-out: Foxtail, Giant plant response rating",90%
same,pest or weed control at 125 g/ha,"[4]; 125 g ai/ha, 0 to 100 scale (0 no effect, 100 complete control), read-out: Plant response rating, Foxtail, Giant",90%
same,pest or weed control at 31 g/ha,"[5]; 31 g ai/ha, 0 to 100 scale where 0 is no effect and 100 is complete control, read-out: Ryegrass, Italian plant response rating",0%
same,pest or weed control at 125 g/ha,"[5]; 125 g ai/ha, 0 to 100 scale (0 no effect, 100 complete control), read-out: Plant response rating, Ryegrass, Italian",40%
same,pest or weed control at 31 g/ha,"[6]; 31 g ai/ha, 0 to 100 scale where 0 is no effect and 100 is complete control, read-out: Ragweed plant response rating",50%
same,pest or weed control at 125 g/ha,"[6]; 125 g ai/ha, 0 to 100 scale (0 no effect, 100 complete control), read-out: Plant response rating, Ragweed",60%
same,pest or weed control at 31 g/ha,"[7]; 31 g ai/ha, 0 to 100 scale where 0 is no effect and 100 is complete control, read-out: Pigweed plant response rating",30%
same,pest or weed control at 125 g/ha,"[7]; 125 g ai/ha, 0 to 100 scale (0 no effect, 100 complete control), read-out: Plant response rating, Pigweed",30%
same,pest or weed control at 31 g/ha,"Kochia (Kochia scoparia) [8]; 31 g ai/ha, 0 to 100 scale where 0 is no effect and 100 is complete control, read-out: Kochia plant response rating",20%
same,pest or weed control at 125 g/ha,"Kochia (Kochia scoparia) [8]; 125 g ai/ha, 0 to 100 scale (0 no effect, 100 complete control), read-out: Plant response rating, Kochia",70%
same,pest or weed control at 31 g/ha,"[9]; 31 g ai/ha, 0 to 100 scale where 0 is no effect and 100 is complete control, read-out: Barnyardgrass plant response rating",80%
same,pest or weed control at 125 g/ha,"[9]; 125 g ai/ha, 0 to 100 scale (0 no effect, 100 complete control), read-out: Plant response rating, Barnyardgrass",90%
same,plant injury at 31 g/ha,"corn (Zea mays); 31 g ai/ha, 0 is no effect, 100 is complete control, read-out: Corn plant response rating (0 to 100 scale)",0%
same,"Corn plant response rating (crop injury, 0 = no effect, 100 = complete kill) at 125 g/ha","corn (Zea mays); 125 g ai/ha, visual injury after approx. 10 d, 0 to 100 scale, 0 no effect, 100 complete control",0%
same,pest or weed control at 31 g/ha,"[10]; 31 g ai/ha, 0 is no effect, 100 is complete control, read-out: Foxtail, Giant plant response rating (0 to 100 scale)",70%
same,pest or weed control at 125 g/ha,"[10]; 125 g ai/ha, visual injury after approx. 10 d, 0 to 100 scale, 0 no effect, 100 complete control, read-out: Plant response rating, Foxtail, Giant",90%
same,pest or weed control at 31 g/ha,"[11]; 31 g ai/ha, 0 is no effect, 100 is complete control, read-out: Ryegrass, Italian plant response rating (0 to 100 scale)",20%
same,pest or weed control at 125 g/ha,"[11]; 125 g ai/ha, visual injury after approx. 10 d, 0 to 100 scale, 0 no effect, 100 complete control, read-out: Plant response rating, Ryegrass, Italian",20%
same,pest or weed control at 31 g/ha,"[12]; 31 g ai/ha, 0 is no effect, 100 is complete control, read-out: Blackgrass plant response rating (0 to 100 scale)",20%
same,pest or weed control at 125 g/ha,"[12]; 125 g ai/ha, visual injury after approx. 10 d, 0 to 100 scale, 0 no effect, 100 complete control, read-out: Plant response rating, Blackgrass",20%
same,pest or weed control at 31 g/ha,"[13]; 31 g ai/ha, 0 is no effect, 100 is complete control, read-out: Ragweed plant response rating (0 to 100 scale)",0%
same,pest or weed control at 125 g/ha,"[13]; 125 g ai/ha, visual injury after approx. 10 d, 0 to 100 scale, 0 no effect, 100 complete control, read-out: Plant response rating, Ragweed",40%
same,pest or weed control at 31 g/ha,"[14]; 31 g ai/ha, 0 is no effect, 100 is complete control, read-out: Pigweed plant response rating (0 to 100 scale)",0%
same,pest or weed control at 125 g/ha,"[14]; 125 g ai/ha, visual injury after approx. 10 d, 0 to 100 scale, 0 no effect, 100 complete control, read-out: Plant response rating, Pigweed",40%
same,pest or weed control at 31 g/ha,"Kochia (Kochia scoparia) [15]; 31 g ai/ha, 0 is no effect, 100 is complete control, read-out: Kochia plant response rating (0 to 100 scale)",50%
same,pest or weed control at 125 g/ha,"Kochia (Kochia scoparia) [15]; 125 g ai/ha, visual injury after approx. 10 d, 0 to 100 scale, 0 no effect, 100 complete control, read-out: Plant response rating, Kochia",70%
same,pest or weed control at 31 g/ha,"[16]; 31 g ai/ha, 0 is no effect, 100 is complete control, read-out: Galium plant response rating (0 to 100 scale)",40%
same,pest or weed control at 125 g/ha,"[16]; 125 g ai/ha, visual injury after approx. 10 d, 0 to 100 scale, 0 no effect, 100 complete control, read-out: Plant response rating, Galium",60%
same,pest or weed control at 31 g/ha,"[17]; 31 g ai/ha, 0 is no effect, 100 is complete control, read-out: Barnyardgrass plant response rating (0 to 100 scale)",90%
same,pest or weed control at 125 g/ha,"[17]; 125 g ai/ha, visual injury after approx. 10 d, 0 to 100 scale, 0 no effect, 100 complete control, read-out: Plant response rating, Barnyardgrass",90%
same,plant injury at 31 g/ha,"[18]; 31 g ai/ha, 0 is no effect, 100 is complete control, read-out: Wheat plant response rating (0 to 100 scale)",0%
same,plant injury at 125 g/ha,"[18]; 125 g ai/ha, visual injury after approx. 10 d, 0 to 100 scale, 0 no effect, 100 complete control, read-out: Plant response rating, Wheat",20%
